The target in one assay is T1, human PFKM (Homo sapiens, UniProt P08237).
T1 construct: made in house; host or cells: Sf9 insect cells (baculovirus)
T1 sequence (P08237 1-780): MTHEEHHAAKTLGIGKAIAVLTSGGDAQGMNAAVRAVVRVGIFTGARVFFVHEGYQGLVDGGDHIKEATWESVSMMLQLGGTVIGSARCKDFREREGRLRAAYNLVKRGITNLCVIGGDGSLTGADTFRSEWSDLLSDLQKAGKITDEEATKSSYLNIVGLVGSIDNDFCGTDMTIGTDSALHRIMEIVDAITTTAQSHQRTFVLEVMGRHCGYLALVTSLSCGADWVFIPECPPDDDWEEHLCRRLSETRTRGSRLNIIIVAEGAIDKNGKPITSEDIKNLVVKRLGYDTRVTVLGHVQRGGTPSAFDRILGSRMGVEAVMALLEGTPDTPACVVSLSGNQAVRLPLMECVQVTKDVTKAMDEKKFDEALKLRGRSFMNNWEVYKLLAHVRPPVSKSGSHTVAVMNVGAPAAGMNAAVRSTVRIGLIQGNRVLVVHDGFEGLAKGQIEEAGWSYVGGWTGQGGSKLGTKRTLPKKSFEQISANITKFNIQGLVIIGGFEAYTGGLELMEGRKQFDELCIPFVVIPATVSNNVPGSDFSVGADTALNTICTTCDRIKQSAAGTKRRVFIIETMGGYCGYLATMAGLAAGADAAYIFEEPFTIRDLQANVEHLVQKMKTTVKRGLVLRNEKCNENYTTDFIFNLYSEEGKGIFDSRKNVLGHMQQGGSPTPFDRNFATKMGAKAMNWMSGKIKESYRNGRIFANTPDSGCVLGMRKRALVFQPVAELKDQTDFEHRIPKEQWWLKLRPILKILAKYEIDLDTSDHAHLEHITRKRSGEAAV
The assay can be described thus: Recombinant PFKM activity assay. Type of assay: biochemical. To be noted: for activation of PFKM: at concentrations up to 100 μM. The text has this:
(§1) Recombinant N-terminal His-tagged human PFKL (NP_002617), PFKM (NP_000280), and PFKP (NM_002627.4) were generated as described ([Webb et al., 2015], [2017]). Point mutants of PFK1 were generated using the QuikChange Lightning kit (Aligent).
(§2) His-tagged PFK1 was expressed and purified as described with slight modifications ([Webb et al., 2015], [2017]). Briefly, baculovirus was generated using the Bac-to-Bac Expression system (Invitrogen). PFK1 was expressed in 2-5 × 10^6 sf9 cells at a multiplicity of infection of two for 48 h. Cells were lysed in 20 mM HEPES, pH 7.5, 80 mM potassium phosphate, 1 mM 2-mercapentoethanol, 10% glycerol, 10 mM imidazole, and EDTA-free Protease Inhibitor Cocktail (Abcam) with a Dounce homogenizer. The soluble lysate was incubated with HisPur cobalt resin (ThermoFisher Scientific). The resin was washed with 5 bead volumes lysis buffer, 10 bead volumes lysis buffer containing 2 M NaCl, and 5 further bead volumes lysis buffer. PFK1 was eluted in lysis buffer containing 100 mM imidazole. Fractions containing protein were pooled, passed over a desalting column equilibrated in freezing buffer [20 mM HEPES pH 7.5, 1 mM DTT, 500 μM ammonium sulfate, 5% glycerol, 1 mM ATP, and 100 μM EDTA] and concentrated using an Amicon Ultracel-30K Centrifugal Filter Unit (MilliporeSigma). Protein was quantified using a Bradford Protein Assay kit (ThermoFisher Scientific), and aliquotes frozen in liquid nitrogen for storage at −80°C.
(§3) PFK1 activity was determined using the rate of FBP production via an auxiliary enzyme assay adapted to a 96-well format ([Brüser et al., 2012]; [Webb et al., 2015]). The auxiliary enzymes aldolase, triosephosphate isomerase, and glycerol phosphate dehydrogenase were purchased from MilliporeSigma as ammonium sulfate slurries and desalted using an Amicon Ultracel-10K Centrifugal Filter Unit. For assays containing FBP, the rate of ADP production was determined using the auxiliary enzymes pyruvate kinase (PK) and lactate dehydrogenase (LDH) (MilliporeSigma) in a buffer containing 250 μM phosphoenolpyruvic acid, […] NADH, 50 mM HEPES pH 7.5, 100 mM KCl, 1 mM DTT, and effector concentrations as described in the text. The temperature was equilibrated to 25°C for 5 min before initiating the reaction 10 mM MgCl2. Absorbance at 340 nm was measured using a Varioskan LUX Multimode microplate reader (ThermoFisher). Kinetic parameters were generated by nonlinear regression analysis using Prism (GraphPad Software) and are the mean of a minimum of three measurements from two independent preparations of protein. One unit of activity was defined as the amount of enzyme that catalyzed the formation of 1 μmol of fructose 1,6-bisphosphate per min at 25°C. […]

The target in assay [1] is T2, PFKM+pocket (R315 to lysine) (Homo sapiens, UniProt P08237, R315K).
T2 construct: made in house; host or cells: Sf9 insect cells (baculovirus)
T2 sequence (P08237 1-780 R315K): T1 sequence (P08237 1-780) with R315K
The assay can be described thus: Recombinant PFKM+pocket activity assay. The format is biochemical.
Source text: as §1, §2, §3

Where [2] appears, read: PFKM wild type, pH 7.0, 250 μM ATP.
[3] abbreviates: PFKM+pocket, pH 7.0, 250 μM ATP.

The EC50 is the concentration giving half of the maximal effect.

Numbering of substitutions follows the chain as printed.

As for `O=C(CO)[C@@H](O)[C@H](O)[C@H](O)COP(=O)(O)O` [F6P, fructose 6-phosphate], the results for the “Vmax,F6P” value (at human PFKM (setting [2]); in assay [1] (setting [3])) were 19.14 ± 0.74 micromoles FBP per minute per milligram PFK1 and 17.29 ± 0.93 micromoles FBP per minute per milligram PFK1, respectively. Moreover, the “hF6P (Hill coefficient)” value on human PFKM (setting [2]) is reported as 4.62 ± 1.38; in assay [1] (setting [3]) it was 3.64 ± 0.69.
Regarding `COc1ccccc1-c1cc2n(n1)Cc1ccc(NC(C)=O)cc1OC2` [LDC7559, reference compound], at human PFKM, the “activation of PFKM” value is recorded as “failed to activate”.
Consider `CC(=O)Nc1ccc2c(c1)OCc1cc(-c3ccccc3)nn1C2` [NA-5], for which, in assay [1] (pH 7.0, 4.0 mM ATP, 1.0 mM F6P, mean ± SEM, read-out: EC50, activation of PFKM+pocket), the EC50 stood at 10.9 ± 1.28 nM.
As to `CC(=O)Nc1ccc2c(c1)OCc1cc(-c3ccccc3C#CCCCO)nn1C2` [NA-11], the “activation of PFKM” value at human PFKM is given as “failed to activate”.

The values above are taken from PMC8802628, “Selective activation of PFKL suppresses the phagocytic oxidative burst” (Cell, 2021).
